Values of other authors, collected in patent US20150272891A1, “DOSAGE FORMS COMPRISING APIXABAN AND MATRIX FORMER” (RATIOPHARM GMBH, priority 2012, published 2015).

Conditions: compared with N-1 form

COc1ccc(-n2nc(C(N)=O)c3c2C(=O)N(c2ccc(N4CCCCC4=O)cc2)CC3)cc1 [H2-2 form, 1-(4-methoxyphenyl)-7-oxo-6-[4-(2-oxopiperidin-1-yl)phenyl]-4,5,6,7-tetrahydro-1H-pyrazolo[3,4-c]pyridine-3-carbamide]
stability of polymorphous form: less stable than the granular, non-solvate N-1 form
